Experiments:
[1] = Cell toxicity (MTS cell viability) in CHO-K1 cells at 24 h; format: cell-based; conditions: Chinese hamster
Method: (§1) d) In Vitro Determination of Cell Toxicity in HepG2, CHO-K1 and HeLa Cells at 24 h
(§2) HepG2 (human hepatocellular carcinoma cells) and CHO-K1 (Chinese hamster ovary cells) were both obtained from the American Type Culture Collection (ATCC). HepG2 were cultured in Minimum Essential Medium (MEM) containing Earl's salts solution with 1.87 mM Glutamax® and supplemented with 1 mM sodium pyruvate, 0.1 mM non-essential amino acids, 100000 U/L penicillin, 100000 μg/L streptomycin and 10% Foetal Bovine Serum. CHO-K1 were maintained in Ham's F-12 medium containing 1 mM Glutamax® and supplemented with 1 mM L-glutamine, 100000 U/L penicillin, 100000 μg/L streptomycin and 10% Foetal Bovine Serum. Promega CellTiter 96® Aqueous One Solution Cell Viability Assay, contains the tetrazolium salt (MTS) that dehydrogenase enzymes found in metabolically active cells turn into the aqueous soluble formazan product. The quantity of formazan product is proportional to the number of living cells in culture.
Compounds were dissolved in DMSO to achieve an initial concentration of 100 mM. Serial dilutions were made from this stock solution in DMSO to achieve a range of concentrations from 50 to 0.25 mM. […] Relative cell viability was determined spectro-photometrically at 490 nm following the addition of the MTS dye and further one-hour incubation. […]

HepG2 cells = test: Cell toxicity (MTS cell viability) in HepG2 cells at 24 h; format: cell-based, human; conditions: HepG2 at 100 μM
Method: as §1, §2
(§3) Compounds were dissolved in DMSO to achieve an initial concentration of 100 mM. Serial dilutions were made from this stock solution in DMSO to achieve a range of concentrations from 50 to 0.25 mM. The stock solution and serial dilutions were then diluted 1:100 with the respective cell culture medium. In the case of CHO-K1 cells, concentrations at 1000, 500, 250, 100, 50, 25, 10, 5 and 2.5 μM were prepared to assess IC50, whereas in the case of HepG2 cells, final concentrations at 1000, 100, 10 and 1 μM final were assayed in order to calculate the percentage of cell. The final DMSO concentration in all wells was 1% v/v. Cell lines were both incubated with test compounds for 24 hours. Relative cell viability was determined spectro-photometrically at 490 nm following the addition of the MTS dye and further one-hour incubation. Tamoxifen was used as the positive control.

HeLa cells = test: Cell toxicity in HeLa cells at 24 h; format: cell-based; conditions: HeLa at 100 μM
Method: as §1, §3
An analogous protocol was used to determine the cell toxicity in HeLa cells at 24 h.

[2] = test system: α1 subunit of the GABAA receptor; test: Ligand-binding assay, competitive with radiolabeled flumazenil, cerebellum membranes; conditions: 1 nM radiolabeled flumazenil, rat cerebellum membranes; for % inhib 10^−5M: 10^−5M compound; for % inhib 10^−7M: 10^−7M compound
Method: (§4) a) Ligand-Binding Assays. Determination of the Affinity of Test Compounds for α1- and α2-GABAA Receptor
(§5) Male Sprague-Dawley rats weighing 200-250 g at the time of experiment were used. After decapitation of the animal, the cerebellum (tissue that mostly contains α1-GABAA receptor) and spinal cord (tissue that mostly contains α2-GABAA receptor) were removed. The membranes were prepared according to the method by J. Lameh et al. (Prog. Neuro-Psychopharmacol. Biol. Psychiatry, 24, 979-991, 2000) and H. Noguchi et al. (Eur. J. Pharm., 434, 21-28, 2002) with slight modifications. Once the tissues weighed, they were suspended in 50 mM Tris.HCl (pH 7.4), 1:40 (v/v), or sucrose 0.32 M in the case of spinal cord, homogenized and then centrifuged at 20000 g for 10 min at 7° C. The resulting pellet was resuspended under the same conditions and centrifuged again. The pellet was finally resuspended on a minimum volume and kept at −80° C. overnight. On the next day, the process was repeated until the final pellet was resuspended at a ratio of 1:10 (v/v) in the case of cerebellum and at a ratio of 1:5 (v/v) in the case of spinal cord.
Affinity was determined by competitive tests using radiolabeled flumazenil as ligand. The tests were performed according to the methods described by S. Arbilla et al. (Eur. J. Pharmacol., 130, 257-263, 1986); and Y. Wu et al. (Eur. J. Pharmacol., 278,125-132, 1995) using 96-well microtiter plates. The membranes containing the study receptors, flumazenil (radiolabeling at a final concentration of 1 nM) and ascending concentrations of test compounds (in a total volume of 230 μL in 50 mM [ph 7.4] Tris.HCl buffer) were incubated. Simultaneously, the membranes were only incubated with the radiolabeled flumazenil (total binding, 100%) and in the presence of an elevated concentration of unradiolabeled flumazenil (non-specific binding, % estimation of radiolabeled ligand). The reactions started on adding the radiolabeled ligand followed by incubation for 60 minutes at 4° C. At the end of the incubation period, 200 μL of reaction were transferred to a multiscreen plate (Millipore) and filtered using a vacuum manifold and then washed three times with cold test buffer. The multiscreen plates were equipped with a GF/B filter that retained the membranes containing the receptors and the radiolabeled ligand which had been bound to the receptors. After washing, the plates were left till dry. Once dried, scintillation liquid was added and left under stirring overnight. The next day the plates were counted using a Perkin-Elmer Microbeta scintillation counter.
(§6) For analysis of the results the percentage of specific binding for every concentration of test compound was calculated as follows: % specific binding=(X−N/T−N)×100 where, • X: amount of bound ligand for every concentration of compound. • T: total binding, maximum amount bound to the radiolabeled ligand. • N: non-specific binding, amount of radiolabeled ligand bound in a non-specific way irrespective of the receptor used.
(§7) Every concentration of compounds was tested in triplicate and their mean values were used to determine the experimental values of % specific binding versus the concentration of compound. Affinity data are expressed as % inhibition at 10^−5M and 10^−7M concentrations for α1 subunit and at 10^-5M for α2 subunit.

mice = test: In vivo predictive sedation-hypnosis test (traveled distance); conditions: male CD1 mice; for % inhib motor activity: 98 μmol/kg ip, traveled distance over 30 min (first 5 min discarded) vs control
Method: b) In Vivo Determination of Predictive Sedative-Hypnotic Action
The in vivo effects of these compounds were assessed by a predictive sedation-hypnosis test in mice (D. J. Sanger et al., Eur. J. Pharmacol., 313, 35-42, 1996; and G. Griebel et al., Psychopharmacology, 146, 205-213, 1999).
Groups of 5-8 male CD1 mice, weighing 22-26 g at the time of test, were used. The test compounds were administered in single equimolecular intraperitoneal doses, suspended in 0.25% agar with one drop of Tween 80 in a volume of 10 mL/kg. Two doses were tested in each route. Control animals received the vehicle alone. Using a Smart System (Panlab, S. L., Spain) the traveled distance in cm is recorded for each mouse at 5-min intervals during a period of 30 minutes after intraperitoneal (ip) dosing. The inhibition percentage of traveled distance of treated animals versus control animals (the first 5 min were discarded) and ED50 values were calculated.

[3] = test system: α2 subunit of the GABAA receptor; test: Ligand-binding assay, competitive with radiolabeled flumazenil, spinal cord membranes; conditions: 10^−5M compound; 1 nM radiolabeled flumazenil; rat spinal cord membranes
Method: as §4, §5
Affinity was determined by competitive tests using radiolabeled flumazenil as ligand. The tests were performed according to the methods described by S. Arbilla et al. (Eur. J. Pharmacol., 130, 257-263, 1986); and Y. Wu et al. (Eur. J. Pharmacol., 278,125-132, 1995) using 96-well microtiter plates. The membranes containing the study receptors, flumazenil (radiolabeling at a final concentration of 1 nM) and ascending concentrations of test compounds (in a total volume of 230 μL in 50 mM [ph 7.4] Tris.HCl buffer) were incubated. Simultaneously, the membranes were only incubated with the radiolabeled flumazenil (total binding, 100%) and in the presence of an elevated concentration of unradiolabeled flumazenil (non-specific binding, % estimation of radiolabeled ligand). […] The next day the plates were counted using a Perkin-Elmer Microbeta scintillation counter.
as §6, §7

[4] = Metabolic stability in human hepatocytes cytosolic fraction; format: in vitro ADME; conditions: 5 μM compound, 1.0 mg/mL pooled human cytosol, 37° C.
Method: c) In Vitro Determination of Metabolic Stability in Human Hepatocytes Cytosolic Fraction
Compounds were dissolved in dimethyl sulfoxide to achieve an initial concentration of 10 mM. This stock solution was then diluted with solvent and buffer to obtain final assay concentration of 5 μM. Compounds were tested at a single concentration of 5 μM in duplicate incubating with 1.0 mg/mL of pooled human cytosol (obtained from Xenotech plc) at 37° C. Metabolism was assessed in the presence or absence of cofactors and measured as loss of parent compound by LC/MS analysis at 0, 60 and 120-minutes time points. Percentages of remaining parent compounds were then calculated.

| Structure (SMILES) | IC50 at 24 h [1] | % of cell viability (HepG2 cells) | % of cell viability (HepG2 cells; listed as indiplon) | % of cell viability (HeLa cells) | % inhib 10^−5M [2] | % inhib 10^−7M [2] | % inhib motor activity (mice) | % inhib 10^−5M [3] | % of Parent ([4]; 60 min) | % of Parent ([4]; 120 min) | ED50 (mice; Mus musculus, ip, read-out: ED50 in inducing sedation) | % of cell viability (HepG2 cells; listed as example 11) |
| --- | --- | --- | --- | --- | --- | --- | --- | --- | --- | --- | --- | --- |
| CC(=O)N(C)c1cccc(-c2ccnc3c(C(=O)c4cccs4)cnn23)c1 [Example 1 of US 6399621 (indiplon), N-{3-[3-(thiophene-2-carbonyl)-pyrazolo[1,5-a]pyrimidin-7-yl]-phenyl}-N-methyl-acetamide, reference compound] | 108 µM | 70% | 70% | 67.9% |  |  |  |  |  |  |  |  |
| CN(c1cc(-c2ccnc3c([N+](=O)[O-])cnn23)ccc1F)S(C)(=O)=O [Preparative example 5, N-{2-fluoro-5-[3-nitro-pyrazolo[1,5-a]pyrimidin-7-yl]-phenyl}-N-methyl-methanesulfonamide] |  |  |  |  | 98.2% | 42.3% | 89.0% | 94.5% |  |  |  |  |
| CN(c1cc(-c2ccnc3c(C#N)cnn23)ccc1F)S(C)(=O)=O [Preparative example 6, N-{2-fluoro-5-[3-cyano-pyrazolo[1,5-a]pyrimidin-7-yl]-phenyl}-N-methyl-methanesulfonamide] |  |  |  |  | 98.1% | 36.4% | 76.3% | 87.5% | 86% | 81% |  |  |
| Cc1nn2c(-c3ccc(F)c(N(C)S(C)(=O)=O)c3)ccnc2c1C#N [Preparative example 11, N-{2-fluoro-5-[3-cyano-2-methyl-pyrazolo[1,5-a]pyrimidin-7-yl]-phenyl}-N-methyl-methanesulfonamide] | 186 µM | 84.5% |  | 83.9% | 97.7% | 41.8% | 83.8% | 95.0% | 88% | 82% | 16.9 µmol/kg | 84.5% |
| CC(=O)N(C)c1cc(-c2ccnc3c(C(=O)c4cccs4)cnn23)ccc1C [Preparative example 13, N-{2-methyl-5-[3-(thiophene-2-carbonyl)-pyrazolo[1,5-a]pyrimidin-7-yl]-phenyl}-N-methyl-acetamide] |  |  |  |  | 98.7% | 39.8% | 95.6% |  |  |  |  |  |
| COc1ccc(-c2ccnc3c(C(=O)c4cccs4)cnn23)cc1N(C)C(C)=O [Preparative example 14, N-{2-methoxy-5-[3-(thiophene-2-carbonyl)-pyrazolo[1,5-a]pyrimidin-7-yl]-phenyl}-N-methyl-acetamide] |  |  |  |  | 97.3% | 31.9% | 89.6% |  |  |  |  |  |
| CCN(C(C)=O)c1cccc(-c2ccnc3c(C#N)cnn23)c1 [Zaleplon, reference compound] |  |  |  |  |  |  | 84.9% | 77.4% |  |  |  |  |

Source: patent US8158632B2, “Pyrazolo[1,5-a]pyrimidines, processes, uses and compositions” (priority 2006, dated 2012)
